Laboratory results published in PMC6934184, “Selective DNA-PKcs inhibition extends the therapeutic index of localized radiotherapy and chemotherapy” (The Journal of Clinical Investigation, 2019).

Assays:
A549 cells = assay: γH2AX and 53BP1 foci after 10 Gy; format: cell-based, human; conditions: 5 μM, 5 hours after irradiation
Procedure: (§1) Cell line γH2AX and 53BP1 foci immunofluorescence and quantitation
(§2) Cells grown on coverslips or in 96-well plates were treated with 1 or 5 µM NU5455 or DMSO 1 hour prior to irradiation (0, 2.5 or 10 Gy) using an RS 320 X-ray Research System (Gulmay Medical). At set timepoints (15 or 30 minutes, or 1, 4, 5, 6, or 24 hours post-irradiation), cells were washed and fixed in methanol or 3% paraformaldehyde (PFA). Cells were blocked and permeabilized in 1% (v/v) goat serum/1% (w/v) BSA/0.1% (v/v) Triton X100 or 0.1% (v/v) Triton X100 containing 10% (w/v) dried milk powder and 2% (w/v) bovine serum albumin, followed by incubation with antibodies against γH2AX (JBW301, Millipore #05-636) and/or 53BP1 (Cell Signaling #4937). Cells were then washed and incubated with Alexa Fluor 488 goat anti-mouse and/or Alexa Fluor 568 goat anti -rabbit antibodies (A11001 or A11011 respectively, Invitrogen). In A549 and Calu-6, cells were Hoechst stained (5 µg/ml), and the average numbers of γH2AX and 53BP1 foci per cell were quantified from 400 nuclei per sample using an In Cell analyzer 1000 (GE Healthcare). For MCF7 cells, coverslips were mounted using Vectashield mounting medium with DAPI (Vector Labs) and imaged using a Leica TCS SPE confocal fluorescence microscope. Total fluorescence intensity was determined using ImagePro Plus 5.0 software (Media Cybernetics).
(§3) Clonogenic survival assays […]

Calu-6 cells = assay: γH2AX and 53BP1 foci after 10 Gy; format: cell-based, human; conditions: 5 μM, 5 hours after irradiation
Procedure: as §1, §2, §3

## CN(C(=O)CN1CCOCC1)c1ccc2sc3c(-c4cccc5c(=O)cc(N6CC7CCC(C6)O7)oc45)cccc3c2c1 [NU5455]
A549 cells
  number of colocalized γH2AX and 53BP1 foci: significant increase
Calu-6 cells
  number of colocalized γH2AX and 53BP1 foci: significant increase
